Our source for the IC50 values is US20250145665A1, “MACROCYCLIC PEPTIDES USEFUL AS MODULATORS OF TNF ALPHA” (Bristol-Myers Squibb Company, priority 2023, published 2025).

The structures appear in SMILES notation. Starred links: 1 amine or outer side, 2 acyl side, 3 side chain; linkers in the order of their positions; H or OH if unused. Positions of bridges follow the written chain, without caps; N, C: chain ends. Non-standard residues stand in square brackets, D forms with d. Residues, ends and D or L forms follow the SMILES beside them. ξ: configuration not given here. *: point of attachment. X5 = Cn1nc(C(=O)Nc2ccc(-c3ccc(C[C@H](N[*:1])C(=O)[*:2])cc3)cc2)c2ccccc21; dArg(ω-(2S)-2,3-diOHpropyl) = N=C(NCCC[C@@H](N)C(=O)O)NC[C@H](O)CO; Bip(4'-NH) = O=C([C@H](Cc1ccc(-c2ccc(N[*:3])cc2)cc1)N[*:1])[*:2]; Indazole3carbonyl(1-CH2COOH) = O=C(O)Cn1nc(C(=O)*)c2ccccc21; X54 = N=C(NCCC[C@@H](N[*:1])C(=O)[*:2])NCc1cccc(-n2ccnc2)c1; Bip(4'-COOH) = N[C@@H](Cc1ccc(-c2ccc(C(=O)O)cc2)cc1)C(=O)O; Bip(4'-NHAc) = CC(=O)Nc1ccc(-c2ccc(C[C@H](N)C(=O)O)cc2)cc1; X19 = N=C(NCCC[C@@H](N[*:1])C(=O)[*:2])NCc1ccc2ccccc2c1; X66 = N=C(NCCC[C@@H](N[*:1])C(=O)[*:2])NCc1ccc(F)c(F)c1; Ala(imidazol-2-yl) = N[C@@H](Cc1ncc[nH]1)C(=O)O; dArg(ω-Bn) = N=C(NCCC[C@@H](N)C(=O)O)NCc1ccccc1; Ala(morpholin-4-yl) = N[C@@H](CN1CCOCC1)C(=O)O; Bip = N[C@@H](Cc1ccc(-c2ccccc2)cc1)C(=O)O; 2Pal = N[C@@H](Cc1ccccn1)C(=O)O; 2Thi = N[C@@H](Cc1cccs1)C(=O)O; Cha = N[C@@H](CC1CCCCC1)C(=O)O; Chg = N[C@H](C(=O)O)C1CCCCC1; ξAze = O=C(O)C1CCN1; Sar = CNCC(=O)O A value given as a limit tells only on which side of the number the result lay.

The target of the first test is TNFα (Homo sapiens, UniProt P01375). Briefly: TNF-Induced HEK-Blue Assay. In kind it is cell-based.
TNFα, sequence (P01375 77-233 limits assumed): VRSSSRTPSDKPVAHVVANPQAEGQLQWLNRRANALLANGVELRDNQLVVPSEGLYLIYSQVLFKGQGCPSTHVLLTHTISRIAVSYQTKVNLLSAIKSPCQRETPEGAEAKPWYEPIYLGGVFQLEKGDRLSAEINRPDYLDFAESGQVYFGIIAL
Conditions: not given
Take `CC(C)C[C@@H]1NC(=O)[C@H](CCCNC(=N)N)NC(=O)[C@H](C(C)C)NC(=O)[C@@H]2CCCN2C(=O)[C@H](C(C)C)NC(=O)[C@@H](CCCNC(=N)NCc2ccccc2)NC(=O)[C@H](CC(=O)O)NC(=O)[C@@H]2CCCN2C(=O)CN(C)C(=O)[C@H](Cc2ccc(-c3ccc(NC(=O)c4nn(CC(=O)O)c5ccccc45)cc3)cc2)NC(=O)[C@H](Cc2ccc(-c3ccccc3)cc2)NC(=O)[C@H](CN2CCOCC2)NC(=O)CSC[C@@H](C(=O)NCC(N)=O)NC1=O` [Example 467] ({CH2CO}-[Ala(morpholin-4-yl)][Bip][Bip(4'-NH)](Indazole3carbonyl(1-CH2COOH))[Sar]PD[dArg(ω-Bn)]VPVRLCG-NH2; thioether N-13): the IC50 is less than 0.05 µM.
The same measure, in the same setting: next, `CC(C)C[C@@H]1NC(=O)[C@H](CCCNC(=N)N)NC(=O)[C@H](C(C)C)NC(=O)[C@@H]2CCCN2C(=O)[C@H](C(C)C)NC(=O)[C@@H](CCCNC(=N)NCc2ccc3ccccc3c2)NC(=O)[C@H](CC(=O)O)NC(=O)[C@@H]2CCCN2C(=O)CN(C)C(=O)[C@H](Cc2ccc(-c3ccc(NC(=O)c4nn(CC(=O)O)c5ccccc45)cc3)cc2)NC(=O)[C@H](Cc2ccc(-c3ccccc3)cc2)NC(=O)[C@H](CN2CCOCC2)NC(=O)CSC[C@@H](C(=O)NCC(N)=O)NC1=O` [Example 468] ({CH2CO}-[Ala(morpholin-4-yl)][Bip][Bip(4'-NH)](Indazole3carbonyl(1-CH2COOH))[Sar]PD[X19]VPVRLCG-NH2; thioether N-13): less than 0.05 µM.
Compound `CC(C)C[C@@H]1NC(=O)[C@H](CCCNC(=N)N)NC(=O)[C@H](C(C)C)NC(=O)[C@@H]2CCCN2C(=O)[C@H](C(C)C)NC(=O)[C@@H](CCCNC(=N)NCc2ccc(F)c(F)c2)NC(=O)[C@H](CC(=O)O)NC(=O)[C@@H]2CCCN2C(=O)CN(C)C(=O)[C@H](Cc2ccc(-c3ccc(NC(=O)c4nn(CC(=O)O)c5ccccc45)cc3)cc2)NC(=O)[C@H](Cc2ccc(-c3ccccc3)cc2)NC(=O)[C@H](CN2CCOCC2)NC(=O)CSC[C@@H](C(=O)NCC(N)=O)NC1=O` [Example 469] ({CH2CO}-[Ala(morpholin-4-yl)][Bip][Bip(4'-NH)](Indazole3carbonyl(1-CH2COOH))[Sar]PD[X66]VPVRLCG-NH2; thioether N-13) had an IC50 of less than 0.05 µM.
`CC(C)C[C@@H]1NC(=O)[C@H](CCCNC(=N)N)NC(=O)[C@H](C(C)C)NC(=O)[C@@H]2CCCN2C(=O)[C@H](C(C)C)NC(=O)[C@@H](CCCNC(=N)NCc2cccc(-n3ccnc3)c2)NC(=O)[C@H](CC(=O)O)NC(=O)[C@@H]2CCCN2C(=O)CN(C)C(=O)[C@H](Cc2ccc(-c3ccc(NC(=O)c4nn(CC(=O)O)c5ccccc45)cc3)cc2)NC(=O)[C@H](Cc2ccc(-c3ccccc3)cc2)NC(=O)[C@H](CN2CCOCC2)NC(=O)CSC[C@@H](C(=O)NCC(N)=O)NC1=O` [Example 470] ({CH2CO}-[Ala(morpholin-4-yl)][Bip][Bip(4'-NH)](Indazole3carbonyl(1-CH2COOH))[Sar]PD[X54]VPVRLCG-NH2; thioether N-13) gave an IC50 of less than 0.05 µM.
As for `CC(C)C[C@@H]1NC(=O)[C@H](CCCNC(=N)N)NC(=O)[C@H](C(C)C)NC(=O)[C@@H]2CCCN2C(=O)[C@H](C(C)C)NC(=O)[C@@H](CCCNC(=N)NC[C@H](O)CO)NC(=O)[C@H](CC(=O)O)NC(=O)[C@@H]2CCCN2C(=O)CN(C)C(=O)[C@H](Cc2ccc(-c3ccc(NC(=O)c4nn(CC(=O)O)c5ccccc45)cc3)cc2)NC(=O)[C@H](Cc2ccc(-c3ccccc3)cc2)NC(=O)[C@H](CN2CCOCC2)NC(=O)CSC[C@@H](C(=O)NCC(N)=O)NC1=O` [Example 475] ({CH2CO}-[Ala(morpholin-4-yl)][Bip][Bip(4'-NH)](Indazole3carbonyl(1-CH2COOH))[Sar]PD[dArg(ω-(2S)-2,3-diOHpropyl)]VPVRLCG-NH2; thioether N-13), the IC50 is less than 0.05 µM.

The test is the same for the next values; noted with them: HEK-Blue-CD40L cells, NF-kB-driven secreted alkaline phosphatase reporter; TNFα 0.5 ng/ml; 18 h; read-out: TNF induced HEK-Blue assay IC50 value.
With `CC(=O)Nc1ccc(-c2ccc(C[C@@H]3NC(=O)[C@H](Cc4ccc(-c5ccc(C(=O)O)cc5)cc4)NC(=O)[C@H](CN4CCOCC4)NC(=O)CSC[C@@H](C(=O)NCC(N)=O)NC(=O)[C@H](CC(C)C)NC(=O)[C@H](Cc4ncc[nH]4)NC(=O)[C@H](C(C)C)NC(=O)[C@@H]4CCCN4C(=O)[C@H](C(C)C)NC(=O)[C@@H](CCCNC(=N)N)NC(=O)[C@H](CC(=O)O)NC(=O)[C@H](Cc4cccs4)NC(=O)CN(C)C3=O)cc2)cc1` [Example 462] ({CH2CO}-[Ala(morpholin-4-yl)][Bip(4'-COOH)][Bip(4'-NHAc)][Sar][2Thi]D[dR]VPV[Ala(imidazol-2-yl)]LCG-NH2; thioether N-13), the IC50 is less than 0.05 µM.
`CC(=O)Nc1ccc(-c2ccc(C[C@@H]3NC(=O)[C@H](Cc4ccc(-c5ccccc5)cc4)NC(=O)[C@H](CN4CCOCC4)NC(=O)CSC[C@@H](C(=O)NCC(N)=O)NC(=O)[C@H](CC(C)C)NC(=O)[C@H](Cc4ncc[nH]4)NC(=O)[C@H](C4CCCCC4)NC(=O)[C@@H]4CCCN4C(=O)[C@H](C(C)C)NC(=O)[C@@H](CCCNC(=N)N)NC(=O)[C@H](CC(=O)O)NC(=O)[C@H](Cc4cccs4)NC(=O)CN(C)C3=O)cc2)cc1` [Example 463] ({CH2CO}-[Ala(morpholin-4-yl)][Bip][Bip(4'-NHAc)][Sar][2Thi]D[dR]VP[Chg][Ala(imidazol-2-yl)]LCG-NH2; thioether N-13): the IC50 is 0.05 to 0.2 µM.
Turning to `CC[C@H](C)[C@@H]1NC(=O)[C@@H]2CCCN2C(=O)[C@H](C(C)C)NC(=O)[C@@H](CCCNC(=N)N)NC(=O)[C@H](CC(=O)O)NC(=O)[C@H](Cc2ccccn2)NC(=O)CN(C)C(=O)[C@H](Cc2ccc(-c3ccc(NC(C)=O)cc3)cc2)NC(=O)[C@H](Cc2ccc(-c3ccccc3)cc2)NC(=O)[C@H](CN2CCOCC2)NC(=O)CSC[C@@H](C(=O)NCC(N)=O)NC(=O)[C@H](CC(C)C)NC(=O)[C@H](Cc2ncc[nH]2)NC1=O` [Example 464] ({CH2CO}-[Ala(morpholin-4-yl)][Bip][Bip(4'-NHAc)][Sar][2Pal]D[dR]VPI[Ala(imidazol-2-yl)]LCG-NH2; thioether N-13), the IC50 is less than 0.05 µM.
The same measure, in the same setting: as for `CC(=O)Nc1ccc(-c2ccc(C[C@@H]3NC(=O)[C@H](Cc4ccc(-c5ccccc5)cc4)NC(=O)[C@H](CC4CCCCC4)NC(=O)CSC[C@@H](C(=O)NCC(N)=O)NC(=O)[C@H](CC(C)C)NC(=O)[C@H](Cc4ncc[nH]4)NC(=O)[C@H](C(C)C)NC(=O)C4CCN4C(=O)[C@H](C(C)C)NC(=O)[C@@H](CCCNC(=N)N)NC(=O)[C@H](CC(=O)O)NC(=O)[C@@H]4CCCN4C(=O)CN(C)C3=O)cc2)cc1` (some centres unmarked) [Example 466] ({CH2CO}-[Cha][Bip][Bip(4'-NHAc)][Sar]PD[dR]V[ξAze]V[Ala(imidazol-2-yl)]LCG-NH2; thioether N-13), the figure is less than 0.05 µM.
In the case of `CC(C)C[C@@H]1NC(=O)[C@H](CCCNC(=N)N)NC(=O)[C@H](C(C)C)NC(=O)[C@@H]2CCCN2C(=O)[C@H](C(C)C)NC(=O)[C@@H](CCCNC(=N)NCc2ccccc2)NC(=O)[C@H](CC(=O)O)NC(=O)[C@@H]2CCCN2C(=O)CN(C)C(=O)[C@H](Cc2ccc(-c3ccc(NC(=O)c4nn(C)c5ccccc45)cc3)cc2)NC(=O)[C@H](Cc2ccc(-c3ccccc3)cc2)NC(=O)[C@H](CN2CCOCC2)NC(=O)CSC[C@@H](C(=O)NCC(N)=O)NC1=O` [Example 471] ({CH2CO}-[Ala(morpholin-4-yl)][Bip][X5][Sar]PD[dArg(ω-Bn)]VPVRLCG-NH2; thioether N-13), the IC50 is less than 0.05 µM.
Take `CC(C)C[C@@H]1NC(=O)[C@H](CCCNC(=N)N)NC(=O)[C@H](C(C)C)NC(=O)[C@@H]2CCCN2C(=O)[C@H](C(C)C)NC(=O)[C@@H](CCCNC(=N)NCc2ccc3ccccc3c2)NC(=O)[C@H](CC(=O)O)NC(=O)[C@@H]2CCCN2C(=O)CN(C)C(=O)[C@H](Cc2ccc(-c3ccc(NC(=O)c4nn(C)c5ccccc45)cc3)cc2)NC(=O)[C@H](Cc2ccc(-c3ccccc3)cc2)NC(=O)[C@H](CN2CCOCC2)NC(=O)CSC[C@@H](C(=O)NCC(N)=O)NC1=O` [Example 472] ({CH2CO}-[Ala(morpholin-4-yl)][Bip][X5][Sar]PD[X19]VPVRLCG-NH2; thioether N-13): the IC50 fell in the range of 0.05 to 0.2 µM.
On the same count and under the same terms, as for `CC(C)C[C@@H]1NC(=O)[C@H](CCCNC(=N)N)NC(=O)[C@H](C(C)C)NC(=O)[C@@H]2CCCN2C(=O)[C@H](C(C)C)NC(=O)[C@@H](CCCNC(=N)NCc2ccc(F)c(F)c2)NC(=O)[C@H](CC(=O)O)NC(=O)[C@@H]2CCCN2C(=O)CN(C)C(=O)[C@H](Cc2ccc(-c3ccc(NC(=O)c4nn(C)c5ccccc45)cc3)cc2)NC(=O)[C@H](Cc2ccc(-c3ccccc3)cc2)NC(=O)[C@H](CN2CCOCC2)NC(=O)CSC[C@@H](C(=O)NCC(N)=O)NC1=O` [Example 473] ({CH2CO}-[Ala(morpholin-4-yl)][Bip][X5][Sar]PD[X66]VPVRLCG-NH2; thioether N-13), the figure is less than 0.05 µM; as for `CC(C)C[C@@H]1NC(=O)[C@H](CCCNC(=N)N)NC(=O)[C@H](C(C)C)NC(=O)[C@@H]2CCCN2C(=O)[C@H](C(C)C)NC(=O)[C@@H](CCCNC(=N)NCc2cccc(-n3ccnc3)c2)NC(=O)[C@H](CC(=O)O)NC(=O)[C@@H]2CCCN2C(=O)CN(C)C(=O)[C@H](Cc2ccc(-c3ccc(NC(=O)c4nn(C)c5ccccc45)cc3)cc2)NC(=O)[C@H](Cc2ccc(-c3ccccc3)cc2)NC(=O)[C@H](CN2CCOCC2)NC(=O)CSC[C@@H](C(=O)NCC(N)=O)NC1=O` [Example 474] ({CH2CO}-[Ala(morpholin-4-yl)][Bip][X5][Sar]PD[X54]VPVRLCG-NH2; thioether N-13), 0.05 to 0.2 µM.
Still for that read-out and setting: as for `CC(C)C[C@@H]1NC(=O)[C@H](CCCNC(=N)N)NC(=O)[C@H](C(C)C)NC(=O)[C@@H]2CCCN2C(=O)[C@H](C(C)C)NC(=O)[C@@H](CCCNC(=N)NC[C@H](O)CO)NC(=O)[C@H](CC(=O)O)NC(=O)[C@@H]2CCCN2C(=O)CN(C)C(=O)[C@H](Cc2ccc(-c3ccc(NC(=O)c4nn(C)c5ccccc45)cc3)cc2)NC(=O)[C@H](Cc2ccc(-c3ccccc3)cc2)NC(=O)[C@H](CN2CCOCC2)NC(=O)CSC[C@@H](C(=O)NCC(N)=O)NC1=O` [Example 476] ({CH2CO}-[Ala(morpholin-4-yl)][Bip][X5][Sar]PD[dArg(ω-(2S)-2,3-diOHpropyl)]VPVRLCG-NH2; thioether N-13), the figure is less than 0.05 µM.
